From publication PMC5477094, “Antiresorptive effect of a cathepsin K inhibitor ONO-5334 and its relationship to BMD increase in a phase II trial for postmenopausal osteoporosis” (BMC Musculoskeletal Disorders, 2017)
Where two headings read alike, the source gives them in different places.

What was measured:
[1] = at 12 h after administration in MAD study, cited from earlier work
[2] = test system: postmenopausal women with osteoporosis or osteopenia; design: method as in PMID 21312264, PMID 23873670; settings: 300 mg QD, OCEAN study; cited from earlier work
Solubility of ONO-5334 = assay type: physicochemical; settings: at acidic pH
[3] = design: method as in earlier work; settings: at morning on 12 month in the OCEAN study, full analysis set, cited from earlier work
[4] = test system: postmenopausal women with osteoporosis or osteopenia; design: method as in PMID 21312264, PMID 23873670; settings: OCEAN study, cited from earlier work
[5] = test system: postmenopausal women with osteoporosis or osteopenia; assay: BMD increase (DXA) in the OCEAN study and linear regression against mean sCTX inhibition over 24 h; assay type: in vivo, human; settings: at 1 year
Experimental: PK data at 50 mg BID, 100 mg QD and 300 mg QD were used from the 15-day multiple-dosing cohort in a phase 1 study of ONO-5334 IR tablets (MAD study, n = 96). The MAD study was a randomized, double-blind, single-center study conducted at the Kendle Clinical Pharmacology Unit, Utrecht, The Netherlands, from April to November 2006 (EudraCT: not applicable). The sigmoidal relationship (Emax model) between plasma ONO-5334 concentrations and sCTX inhibition was taken from a study using SR tablets of ONO-5334 (PKPD study, n = 10). The PKPD study was a phase 1, 2-part (4- and 2-way crossover), open-label, randomized trial conducted at Pharmaceutical Profiles, Ruddington, Nottingham, United Kingdom, from January 2008 to April 2008 (European Union Clinical Trials Register [EudraCT]: 2007–005206-47). Data for sCTX inhibition and increase in BMD after 1 year of treatment were taken from the OCEAN study (n = 285). […]
The relationship of sCTX inhibition for 24 h and the mean increase in BMD for the lumbar spine (L1-L4) and total hip after 1 year of treatment in the OCEAN study were analyzed. BMD in the OCEAN study was measured using dual-energy X-ray absorptiometry (DXA) (Prodigy, GE Lunar, Madison, WI, USA). […]

[6] = cited from earlier work
[7] = test system: serum C-telopeptide of type I collagen (sCTX); design: method as in PMID 26188109; settings: PKPD study, SR tablets, cited from earlier work
[8] = test system: serum C-telopeptide of type I collagen (sCTX); assay: Simulation of sCTX inhibition from plasma ONO-5334 concentrations with sigmoidal Emax model; design: species or system human
Text: PK data from the MAD study and the relationship between plasma ONO-5334 levels and sCTX inhibition in healthy postmenopausal women obtained from the PKPD study were used in simulation of the antiresorptive effect of ONO-5334 [29, 31]. Our previous PK data for 14 days after repeated administration were also used in the simulation. sCTX inhibition for doses and regimens in the OCEAN study were simulated using plasma ONO-5334 levels and the sigmoidal Emax model in the PKPD study (Fig. 1). The sigmoidal Emax model was fitted to data using log-transformed ONO-5334 plasma concentrations and effects on sCTX inhibition, using the following equation [32]. Effect=E0+Emax×C^r/EC50r+C^r

SMILES: C[C@@H]1CS/C(=N\NC(=O)C(=O)[C@@H](NC(=O)C2CCCCCC2)C2CCOCC2)N1C [ONO-5334]
- Plasma ONO-5334 concentration (Mean ± SD) ([1]; 50 mg BID): 1.82 ± 0.33 ng/mL
- Plasma ONO-5334 concentration (Mean ± SD) ([1]; 100 mg QD): 2.74 ± 0.99 ng/mL
- Plasma ONO-5334 concentration (Mean ± SD) ([1]; 300 mg QD): 14.5 ± 6.33 ng/mL
- safety [2]: no safety concerns
- solubility (Solubility of ONO-5334): high
- Plasma ONO-5334 concentration (Mean ± SD) ([3]; 50 mg BID): 2.51 ± 1.60 ng/mL
- Plasma ONO-5334 concentration (Mean ± SD) ([3]; 100 mg QD): 4.51 ± 3.26 ng/mL
- Plasma ONO-5334 concentration (Mean ± SD) ([3]; 300 mg QD): 14.4 ± 10.6 ng/mL
- effect on BMD ([4]; 50 mg BID and 300 mg QD): increased BMD at all measured sites
- efficacy for increasing BMD compared to 50 mg BID and 300 mg QD ([4]; 100 mg QD): less efficacy
- maximum BMD increase (100% Emax for 24 h) calculated by linear regression ([5]; lumbar spine): 4.85%
- maximum BMD increase (100% Emax for 24 h) calculated by linear regression ([5]; total hip): 3.05%
- PK parameters, Cmax and AUC, postprandial administration compared with a fasted state [6]: do not differ significantly
- time for trough plasma ONO-5334 level to reach steady state ([6]; repeated administration, after the first administration, earlier phase I studies): 2 days
- effect span (Emax) of sigmoidal Emax model for sCTX [7]: −54.0%
- half-maximal effective concentration of ONO-5334 (EC50) for sCTX inhibition ([7]; plasma concentration): 2.07 ng/mL
- Cmax relative to the concentration required for 99% Emax ([8]; 50 mg BID): 4 times
- Cmax relative to the concentration required for 99% Emax ([8]; 100 mg QD): 14 times
- Cmax relative to the concentration required for 99% Emax ([8]; 300 mg QD): 56 times
